{"source": "patent US8992998B2", "about": "“MAPK inhibition by H2” (priority 2010, dated 2015)", "key": {"[1]": {"system": "LPS-induced endotoxin shock", "assay": "LPS-induced endotoxin shock in mice: survival rate and plasma/serum TNF-α and IL-6", "type": "in vivo, C57BL/6j mice"}, "BMMs": {"system": "BMMs", "assay": "Proinflammatory cytokine production (ELISA) from stimulated bone marrow derived macrophages", "type": "cell-based, mouse", "conditions": "for IL-6 production induced by LPS (Example 5): FIG. 5C"}, "[2]": {"system": "ROS (hydroxyl radical, superoxide, H2O2) in BMMs", "assay": "Intracellular ROS production in LPS-stimulated BMMs (HPF / CM-H2DCFDA fluorescence)", "type": "cell-based, mouse", "description": "Invitrogen) detects superoxide, H2O2, and hydroxyl radical. […] After preculture, the cells were exposed to LPS ([…]) for 30 minutes and immediately HPF fluorescence or fluorophore DCF were detected at an excitation wavelength of 485 nm and an emission wavelength of 530 nm with a fluorometric imaging plate reader, Synergy HT (Biotech Instruments, Winooski, Vt.)."}, "[3]": {"system": "MAPKs (ERK, p38, and JNK)", "assay": "Immunoblotting of MAPKs phosphorylation in stimulated BMMs", "type": "cell-based, mouse"}, "[4]": {"system": "MAPKs (ERK, p38, and JNK)", "assay": "Phosphorylated MAPKs levels in peritoneal cells isolated from treated mice", "type": "in vivo, mouse", "conditions": "i.p., 45 minutes prior to isolation", "description": "After 45 minutes, peritoneal suspensions were obtained by peritoneal lavage as previously described. […] The peritoneal cells were immediately lysed in lysis buffer and performed Immunoblotting as described above."}, "DCs": {"system": "DCs", "conditions": "LPS stimulation"}, "[5]": {"system": "MAPKs (ERK, p38, and JNK)", "conditions": "non-stimulated BMMs, time dependent"}, "MKP-1": {"system": "MKP-1", "conditions": "BMMs, within 20 minutes"}, "p38b": {"target": "p38b (Homo sapiens, UniProt Q15759)", "sequence (Q15759 whole entry, species assumed)": "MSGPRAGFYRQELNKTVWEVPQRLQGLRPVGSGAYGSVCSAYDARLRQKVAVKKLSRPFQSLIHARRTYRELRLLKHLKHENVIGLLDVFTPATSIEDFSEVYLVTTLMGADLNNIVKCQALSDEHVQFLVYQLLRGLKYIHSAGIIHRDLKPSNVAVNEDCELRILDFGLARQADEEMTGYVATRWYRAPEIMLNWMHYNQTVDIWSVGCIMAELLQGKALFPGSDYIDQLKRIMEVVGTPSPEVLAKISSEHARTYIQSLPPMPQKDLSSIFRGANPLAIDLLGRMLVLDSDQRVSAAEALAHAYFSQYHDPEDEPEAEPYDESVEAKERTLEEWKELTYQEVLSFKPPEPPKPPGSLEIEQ", "conditions": "cited from earlier work"}, "p38gamma": {"target": "T1, p38gamma (Homo sapiens, UniProt P53778)", "T1 sequence (P53778 1-367)": "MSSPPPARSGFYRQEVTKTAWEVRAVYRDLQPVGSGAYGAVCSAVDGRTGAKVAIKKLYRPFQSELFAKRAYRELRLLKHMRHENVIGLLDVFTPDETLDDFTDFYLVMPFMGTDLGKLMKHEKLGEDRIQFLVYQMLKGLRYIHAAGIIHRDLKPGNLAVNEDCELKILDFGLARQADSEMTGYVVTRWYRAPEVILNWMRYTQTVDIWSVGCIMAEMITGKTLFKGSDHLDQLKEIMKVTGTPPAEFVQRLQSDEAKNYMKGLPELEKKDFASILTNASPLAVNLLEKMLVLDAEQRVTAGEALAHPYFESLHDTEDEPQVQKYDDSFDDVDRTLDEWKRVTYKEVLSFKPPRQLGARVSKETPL", "conditions": "cited from earlier work"}, "p38delta": {"target": "T2, p38delta (Homo sapiens, UniProt O15264)", "T2 sequence (O15264 1-365)": "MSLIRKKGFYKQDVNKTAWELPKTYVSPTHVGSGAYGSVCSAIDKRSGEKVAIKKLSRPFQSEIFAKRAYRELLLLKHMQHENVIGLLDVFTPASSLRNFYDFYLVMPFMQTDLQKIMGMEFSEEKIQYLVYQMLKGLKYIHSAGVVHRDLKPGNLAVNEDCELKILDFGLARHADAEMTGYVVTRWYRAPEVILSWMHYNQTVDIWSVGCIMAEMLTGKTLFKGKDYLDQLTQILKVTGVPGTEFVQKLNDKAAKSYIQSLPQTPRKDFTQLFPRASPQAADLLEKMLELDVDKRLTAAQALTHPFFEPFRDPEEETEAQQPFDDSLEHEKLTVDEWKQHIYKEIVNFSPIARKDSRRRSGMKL", "conditions": "cited from earlier work"}, "[6]": {"conditions": "lethal dose of LPS, treatment i.p., plasma 4 hour after LPS"}}}
{"smiles": "CC(=O)N[C@@H](CS)C(=O)O", "note": "[NAC, N-acetyl-L-cysteine, reference compound]", "values": [{"measurement": "serum IL-6 production", "setting": "[1]; [6]", "result": "significantly suppressed"}, {"measurement": "serum TNF-α production", "setting": "[1]; [6]", "result": "significantly suppressed"}, {"measurement": "survival rate", "setting": "[1]; mouse, in vivo", "result": 20, "unit": "%"}, {"measurement": "survival rate", "setting": "[1]; mouse, in vivo, ip", "result": 70, "unit": "%"}, {"measurement": "IL-6 production induced by LPS (Example 5)", "setting": "BMMs", "result": "still inhibited"}, {"measurement": "IL-6 production induced by PGN", "setting": "BMMs", "result": "did not inhibit"}, {"measurement": "IL-6 production induced by poly(I:C)", "setting": "BMMs", "result": "did not inhibit"}, {"measurement": "TNF-α production induced by poly(I:C)", "setting": "BMMs", "result": "not"}, {"measurement": "LPS-mediated induction of fluorescence from DCF (superoxide, H2O2, or hydroxyl radical)", "setting": "[2]", "result": "remarkably inhibited"}, {"measurement": "LPS-mediated induction of hydroxyl radical (HPF)", "setting": "[2]", "result": "suppressed"}, {"measurement": "PGN-induced phosphorylation of ERK and p38", "setting": "[3]", "result": "inhibited little or no"}, {"measurement": "poly(I:C)-induced MAPKs phosphorylation", "setting": "[3]", "result": "not"}, {"measurement": "phosphorylation of MAPKs in peritoneal cells", "setting": "[4]", "result": "did not reduce"}]}
{"smiles": "[HH]", "note": "[H2, molecular hydrogen]", "values": [{"measurement": "survival rate", "setting": "[1]; mouse, in vivo", "result": 90, "unit": "%"}, {"measurement": "protection from lethal endotoxin shock", "setting": "[1]; mouse, in vivo, po", "result": "prevented the mice from lethal endotoxin shock"}, {"measurement": "IL-6 production in serum", "setting": "[1]; oral administration", "result": "down-regulation"}, {"measurement": "TNF-a production in serum", "setting": "[1]; oral administration", "result": "down-regulation"}, {"measurement": "IL-6 production", "setting": "BMMs; LPS stimulation", "result": "suppressed"}, {"measurement": "IL-12p40 production", "setting": "BMMs; LPS stimulation", "result": "suppressed"}, {"measurement": "TNF-α production", "setting": "BMMs; LPS stimulation", "result": "suppressed"}, {"measurement": "IL-6 production induced by LPS (Example 5)", "setting": "BMMs", "result": "down-regulated"}, {"measurement": "IL-6 production induced by PGN", "setting": "BMMs", "result": "down-regulated"}, {"measurement": "IL-6 production induced by poly(I:C)", "setting": "BMMs", "result": "down-regulated"}, {"measurement": "TNF-α production induced by poly(I:C)", "setting": "BMMs", "result": "suppressed"}, {"measurement": "LPS-mediated induction of fluorescence from DCF (superoxide, H2O2, or hydroxyl radical)", "setting": "[2]", "result": "not affected"}, {"measurement": "LPS-mediated induction of hydroxyl radical (HPF)", "setting": "[2]", "result": "suppressed"}, {"measurement": "phosphorylation level of MAPKs induced by LPS", "setting": "[3]; LPS, ERK, p38 and JNK", "result": "obviously decreased"}, {"measurement": "level of phosphorylated ERK, LPS-induced", "setting": "[3]; LPS, FIG. 5E", "result": "decreased"}, {"measurement": "PGN-induced phosphorylation of ERK and p38", "setting": "[3]", "result": "blocked"}, {"measurement": "poly(I:C)-induced MAPKs phosphorylation", "setting": "[3]", "result": "attenuated"}, {"measurement": "phosphorylation of MAPKs in peritoneal cells", "setting": "[4]", "result": "decreased"}, {"measurement": "IL-6 production", "setting": "DCs", "result": "suppressed"}, {"measurement": "IL-12p40 production", "setting": "DCs", "result": "suppressed"}, {"measurement": "TNF-α production", "setting": "DCs", "result": "suppressed"}, {"measurement": "basal levels of phosphorylated ERK, p38, and JNK", "setting": "[5]", "result": "decreased"}, {"measurement": "expression of MKP-1 protein", "setting": "MKP-1", "result": "up-regulated"}, {"measurement": "H2 concentration at saturation", "setting": "PBS or culture medium, 25° C.", "result": 780, "unit": "mM"}, {"measurement": "pH", "setting": "saturated H2 in water", "result": 7.6}, {"measurement": "redox potential (ORP level)", "setting": "saturated H2 in water", "result": "−511", "unit": "mV"}]}
{"smiles": "C[S+]([O-])c1ccc(-c2nc(-c3ccncc3)c(-c3ccc(F)cc3)[nH]2)cc1", "note": "(stereo not drawn) [SB203580]", "values": [{"measurement": "sensitivity to inhibition", "setting": "p38b", "result": "sensitive"}, {"measurement": "sensitivity to inhibition", "setting": "p38gamma", "result": "unaffected"}, {"measurement": "sensitivity to inhibition", "setting": "p38delta", "result": "unaffected"}]}
